Laboratory results: ChEMBL document CHEMBL1153200, “Discovery of 3,6-dihydro-2H-pyran as a morpholine replacement in 6-aryl-1H-pyrazolo[3,4-d]pyrimidines and 2-arylthieno[3,2-d]pyrimidines: ATP-competitive inhibitors of the mammalian target of rapamycin (mTOR)” (Bioorg Med Chem Lett, 2010)

Target: Serine/threonine-protein kinase mTOR (Homo sapiens, UniProt P42345)
Assay: Inhibition of mTOR in HEK293 cells by DELFIA assay
Format: cell-based
Settings: not given

IC50 [nM] | Compound
1 | O=C(Nc1ccc(-c2nc(C3=CCOCC3)c3cnn(CC(F)(F)F)c3n2)cc1)Nc1cccnc1
18 | Oc1cccc(-c2nc(C3=CCOCC3)c3cnn(-c4ccccc4)c3n2)c1
2.5 | O=C(NCCF)Nc1ccc(-c2nc(C3=CCOCC3)c3sccc3n2)cc1
1.1 | O=C(Nc1ccc(-c2nc(C3=CCOCC3)c3sccc3n2)cc1)Nc1cccnc1
500 | Oc1cccc(-c2nc(C3CCOCC3)c3cnn(-c4ccccc4)c3n2)c1
1 | O=C(NCCF)Nc1ccc(-c2nc(C3=CCOCC3)c3cnn(CC(F)(F)F)c3n2)cc1
2 | CNC(=O)Nc1ccc(-c2nc(C3=CCOCC3)c3cnn(CC(F)(F)F)c3n2)cc1
1.8 | O=C(Nc1ccncc1)Nc1ccc(-c2nc(C3=CCOCC3)c3sccc3n2)cc1
3.3 | CCNC(=O)Nc1ccc(-c2nc(C3=CCOCC3)c3sccc3n2)cc1
0.2 | O=C(Nc1ccc(-c2nc(N3CCOCC3)c3cnn(CC(F)(F)F)c3n2)cc1)Nc1cccnc1
7.2 | O=C(Nc1ccccc1)Nc1ccc(-c2nc(C3=CCOCC3)c3sccc3n2)cc1

Same assay, conditions: hek293

IC50 [nM] | Compound
0.6 | O=C(NCCF)Nc1ccc(-c2nc(N3CCOCC3)c3cnn(CC(F)(F)F)c3n2)cc1
1 | CNC(=O)Nc1ccc(-c2nc(N3CCOCC3)c3cnn(CC(F)(F)F)c3n2)cc1

Target: Phosphatidylinositol 4,5-bisphosphate 3-kinase catalytic subunit alpha isoform (Homo sapiens, UniProt P42336)
Sequence (P42336 whole entry, canonical isoform): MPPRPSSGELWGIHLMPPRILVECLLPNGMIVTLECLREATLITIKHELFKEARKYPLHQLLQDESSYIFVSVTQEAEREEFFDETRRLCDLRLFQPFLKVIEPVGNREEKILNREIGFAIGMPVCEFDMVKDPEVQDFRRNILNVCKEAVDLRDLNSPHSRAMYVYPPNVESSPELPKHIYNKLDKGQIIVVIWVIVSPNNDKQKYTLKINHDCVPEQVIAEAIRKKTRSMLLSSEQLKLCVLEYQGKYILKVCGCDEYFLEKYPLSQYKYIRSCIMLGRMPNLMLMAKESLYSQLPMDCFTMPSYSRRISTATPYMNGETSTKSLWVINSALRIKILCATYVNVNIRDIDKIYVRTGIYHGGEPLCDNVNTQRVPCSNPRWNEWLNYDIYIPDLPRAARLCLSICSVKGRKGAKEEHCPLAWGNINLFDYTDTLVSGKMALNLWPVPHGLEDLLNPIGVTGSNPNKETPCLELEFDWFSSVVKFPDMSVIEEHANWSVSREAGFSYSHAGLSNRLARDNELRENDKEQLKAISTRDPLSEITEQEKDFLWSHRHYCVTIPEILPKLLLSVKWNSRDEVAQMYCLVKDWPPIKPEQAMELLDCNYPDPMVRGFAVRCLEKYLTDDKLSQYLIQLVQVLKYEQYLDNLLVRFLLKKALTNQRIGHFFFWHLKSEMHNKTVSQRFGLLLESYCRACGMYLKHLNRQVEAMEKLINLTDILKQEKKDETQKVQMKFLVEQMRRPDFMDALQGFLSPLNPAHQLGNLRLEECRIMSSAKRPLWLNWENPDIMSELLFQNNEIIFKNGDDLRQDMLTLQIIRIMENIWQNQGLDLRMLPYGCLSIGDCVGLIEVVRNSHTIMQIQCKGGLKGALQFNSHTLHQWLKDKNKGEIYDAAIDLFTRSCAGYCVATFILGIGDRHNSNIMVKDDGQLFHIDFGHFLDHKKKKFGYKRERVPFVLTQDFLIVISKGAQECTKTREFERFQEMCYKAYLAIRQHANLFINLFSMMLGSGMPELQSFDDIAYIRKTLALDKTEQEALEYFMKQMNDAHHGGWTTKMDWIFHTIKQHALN
Assay: Inhibition of PI3Kalpha by fluorescence polarization assay
Settings: not given

IC50 [nM] | Compound
59 | Oc1cccc(-c2nc(C3=CCOCC3)c3cnn(-c4ccccc4)c3n2)c1
1370 | O=C(NCCF)Nc1ccc(-c2nc(C3=CCOCC3)c3sccc3n2)cc1
35 | O=C(Nc1ccc(-c2nc(C3=CCOCC3)c3sccc3n2)cc1)Nc1cccnc1
1010 | Oc1cccc(-c2nc(C3CCOCC3)c3cnn(-c4ccccc4)c3n2)c1
200 | CNC(=O)Nc1ccc(-c2nc(C3=CCOCC3)c3cnn(CC(F)(F)F)c3n2)cc1
27 | O=C(Nc1ccncc1)Nc1ccc(-c2nc(C3=CCOCC3)c3sccc3n2)cc1
1050 | CCNC(=O)Nc1ccc(-c2nc(C3=CCOCC3)c3sccc3n2)cc1
28 | O=C(Nc1ccccc1)Nc1ccc(-c2nc(C3=CCOCC3)c3sccc3n2)cc1

Tested on: not listed separately
Assay: Selectivity ratio, IC50 for PI3Kalpha to IC50 for human mTOR
Settings: not given

Ratio IC50 | Compound
66 | O=C(Nc1ccc(-c2nc(C3=CCOCC3)c3cnn(CC(F)(F)F)c3n2)cc1)Nc1cccnc1
525 | O=C(NCCF)Nc1ccc(-c2nc(N3CCOCC3)c3cnn(CC(F)(F)F)c3n2)cc1
3.3 | Oc1cccc(-c2nc(C3=CCOCC3)c3cnn(-c4ccccc4)c3n2)c1
560 | O=C(NCCF)Nc1ccc(-c2nc(C3=CCOCC3)c3sccc3n2)cc1
32 | O=C(Nc1ccc(-c2nc(C3=CCOCC3)c3sccc3n2)cc1)Nc1cccnc1
2 | Oc1cccc(-c2nc(C3CCOCC3)c3cnn(-c4ccccc4)c3n2)c1
2300 | O=C(NCCF)Nc1ccc(-c2nc(C3=CCOCC3)c3cnn(CC(F)(F)F)c3n2)cc1
100 | CNC(=O)Nc1ccc(-c2nc(C3=CCOCC3)c3cnn(CC(F)(F)F)c3n2)cc1
15 | O=C(Nc1ccncc1)Nc1ccc(-c2nc(C3=CCOCC3)c3sccc3n2)cc1
319 | CCNC(=O)Nc1ccc(-c2nc(C3=CCOCC3)c3sccc3n2)cc1
194 | CNC(=O)Nc1ccc(-c2nc(N3CCOCC3)c3cnn(CC(F)(F)F)c3n2)cc1
50 | O=C(Nc1ccc(-c2nc(N3CCOCC3)c3cnn(CC(F)(F)F)c3n2)cc1)Nc1cccnc1
4 | O=C(Nc1ccccc1)Nc1ccc(-c2nc(C3=CCOCC3)c3sccc3n2)cc1

Tested on: LNCaP
Assay: Cytotoxicity against human LNCAP cells after 1 to 2 hrs by MTS assay
Format: functional, cell-based
Settings: not given

Compound | IC50 [nM]
O=C(Nc1ccc(-c2nc(C3=CCOCC3)c3cnn(CC(F)(F)F)c3n2)cc1)Nc1cccnc1 | 380
O=C(NCCF)Nc1ccc(-c2nc(N3CCOCC3)c3cnn(CC(F)(F)F)c3n2)cc1 | 60
O=C(NCCF)Nc1ccc(-c2nc(C3=CCOCC3)c3sccc3n2)cc1 | 1300
O=C(Nc1ccc(-c2nc(C3=CCOCC3)c3sccc3n2)cc1)Nc1cccnc1 | 210
O=C(NCCF)Nc1ccc(-c2nc(C3=CCOCC3)c3cnn(CC(F)(F)F)c3n2)cc1 | 72
CNC(=O)Nc1ccc(-c2nc(C3=CCOCC3)c3cnn(CC(F)(F)F)c3n2)cc1 | 260
O=C(Nc1ccncc1)Nc1ccc(-c2nc(C3=CCOCC3)c3sccc3n2)cc1 | 200
CCNC(=O)Nc1ccc(-c2nc(C3=CCOCC3)c3sccc3n2)cc1 | 470
CNC(=O)Nc1ccc(-c2nc(N3CCOCC3)c3cnn(CC(F)(F)F)c3n2)cc1 | 230
O=C(Nc1ccc(-c2nc(N3CCOCC3)c3cnn(CC(F)(F)F)c3n2)cc1)Nc1cccnc1 | < 27
O=C(Nc1ccccc1)Nc1ccc(-c2nc(C3=CCOCC3)c3sccc3n2)cc1 | 800

Tested on: not listed separately
Assay: Half life in nude mouse microsomes
Format: ADME, Microsome
Settings: not given

half-life [min] | Compound
25 | O=C(Nc1ccc(-c2nc(C3=CCOCC3)c3cnn(CC(F)(F)F)c3n2)cc1)Nc1cccnc1
22 | O=C(NCCF)Nc1ccc(-c2nc(N3CCOCC3)c3cnn(CC(F)(F)F)c3n2)cc1
6 | O=C(NCCF)Nc1ccc(-c2nc(C3=CCOCC3)c3sccc3n2)cc1
> 30 | O=C(Nc1ccc(-c2nc(C3=CCOCC3)c3sccc3n2)cc1)Nc1cccnc1
> 30 | O=C(NCCF)Nc1ccc(-c2nc(C3=CCOCC3)c3cnn(CC(F)(F)F)c3n2)cc1
13 | CNC(=O)Nc1ccc(-c2nc(C3=CCOCC3)c3cnn(CC(F)(F)F)c3n2)cc1
> 30 | O=C(Nc1ccncc1)Nc1ccc(-c2nc(C3=CCOCC3)c3sccc3n2)cc1
3 | CCNC(=O)Nc1ccc(-c2nc(C3=CCOCC3)c3sccc3n2)cc1
26 | CNC(=O)Nc1ccc(-c2nc(N3CCOCC3)c3cnn(CC(F)(F)F)c3n2)cc1
> 30 | O=C(Nc1ccc(-c2nc(N3CCOCC3)c3cnn(CC(F)(F)F)c3n2)cc1)Nc1cccnc1
21 | O=C(Nc1ccccc1)Nc1ccc(-c2nc(C3=CCOCC3)c3sccc3n2)cc1
